Assay results: patent EP0211490B1, “Antibiotics of the vancomycin-class” (SMITHKLINE BEECHAM CORPORATION, priority 1985, dated 1987)
Bridge positions count the residues as written; N and C are the ends. Square brackets hold non-standard residues; d marks the D form. Peptide text beside a SMILES is read from it. * marks the point of attachment. Ileψ(thiazoline)Cys = CC[C@H](C)[C@H](N)C1=N[C@H](C(=O)*)CS1; dOrn = NCCC[C@@H](N)C(=O)O

Legend:
K. aridum = experiment: susceptibility of K. aridum to antibiotic disks (diffusion method); type: cell-based, Kibdelosporangium aridum; conditions: one week at 28°C; for susceptibility by the diffusion method (in words): BBL susceptibility disks, content per antibiotic; for zones of inhibition: disk 5 µg, nutrient agar seeded with K. aridum, zones contained a few resistant colonies
Protocol: Susceptibility of K. aridum to antibiotics was examined by placing BBL susceptibility disks on nutrient agar plates seeded with K. aridum as an overlay. Diameters of the zones of inhibition were measured after incubation for one week at 28°C.
Susceptibility to Antibiotics. By the diffusion method, K. aridum was resistant to disks impregnated with gentamicin (10 µg), tobramycin (10 µg), streptomycin (10 µg), vancomycin (30 µg), penicillin (10 units), bacitracin (2 units), lincomycin (2 µg), clindamycin (2 µg), and cephalothin (30 µg). Chlortetracycline (5 µg) produced 18 mm zones of inhibition; tetracycline (5 µg) 11-12 mm zones; rifampin (5 µg) 11-15 mm zones; novobiocin (5 µg) 27-28 mm zones. All zones of inhibition contained at least a few resistant colonies.

Staph. aureus HH 127 = experiment: in vivo activity against intraperitoneal infection in mice (ED50); conditions: Staphylococcus aureus, HH127, read-out: ED₅₀
Protocol: The ED₅₀'s were as follows: AAD 216 aglycone, 7.6 mg/kg; AAD 216 pseudo- aglycone, 7.6 mg/kg; AAD 216A pseudoaglycone, 5.0 mg./kg; vancomycin, 1.56 mg/kg. Similarly, the ED₅₀'s of AAD 216A pseudoaglycone, AAD 216B pseudoaglycone, AAD 216C pseudoaglycone and vancomycin, determined by utilizing a similar protocol, were 12.5 mg/kg, 7.6 mg/kg, 10.8 mg/kg and 1.92 mg/kg, respectively.

Compound: gentamicin
- susceptibility by the diffusion method (in words) (K. aridum): resistant

Compound: CN(C)[C@@H]1C(O)=C(C(N)=O)C(=O)[C@@]2(O)C(O)=C3C(=O)c4c(O)ccc(Cl)c4[C@@](C)(O)[C@H]3C[C@@H]12 [Chlortetracycline]
- zones of inhibition (K. aridum): 18 mm

Compound: NC[C@H]1O[C@H](O[C@H]2[C@H](O)[C@@H](O[C@H]3O[C@H](CO)[C@@H](O)[C@H](N)[C@H]3O)[C@H](N)C[C@@H]2N)[C@H](N)C[C@@H]1O [tobramycin]
- susceptibility by the diffusion method (in words) (K. aridum): resistant

Compound: CC[C@H](C)[C@H](N)C1=N[C@H](C(=O)N[C@@H](CC(C)C)C(=O)N[C@H](CCC(=O)O)C(=O)N[C@H](C(=O)N[C@H]2CCCCNC(=O)[C@H](CC(N)=O)NC(=O)[C@@H](CC(=O)O)NC(=O)[C@H](Cc3cnc[nH]3)NC(=O)[C@@H](Cc3ccccc3)NC(=O)[C@H]([C@@H](C)CC)NC(=O)[C@@H](CCCN)NC2=O)[C@@H](C)CC)CS1 [bacitracin] ({Ileψ(thiazoline)Cys}-L[dE]IK[dOrn]I[dF]H[dD]N; lactam 4-C)
- susceptibility by the diffusion method (in words) (K. aridum): resistant

Compound: CO[C@H]1/C=C/O[C@@]2(C)Oc3c(C)c(O)c4c(O)c(c(/C=N/N5CCN(C)CC5)c(O)c4c3C2=O)NC(=O)/C(C)=C\C=C\[C@H](C)[C@H](O)[C@@H](C)[C@@H](O)[C@@H](C)[C@H](OC(C)=O)[C@@H]1C [rifampin]
- zones of inhibition (K. aridum): 11-15 mm

Compound: CO[C@@H]1[C@@H](OC(N)=O)[C@@H](O)[C@H](Oc2ccc3c(O)c(NC(=O)c4ccc(O)c(CC=C(C)C)c4)c(=O)oc3c2C)OC1(C)C [novobiocin]
- zones of inhibition (K. aridum): 27-28 mm

Compound: [H]/N=C(/N)N[C@H]1[C@H](O)[C@@H](O)[C@H](O[C@@H]2O[C@@H](C)[C@](O)(C=O)[C@H]2O[C@@H]2O[C@@H](CO)[C@H](O)[C@@H](O)[C@@H]2NC)[C@@H](N/C(N)=N\[H])[C@@H]1O [streptomycin]
- susceptibility by the diffusion method (in words) (K. aridum): resistant

Compound: penicillin
- susceptibility by the diffusion method (in words) (K. aridum): resistant

Compound: CNC1C(=O)NC2C(=O)NC(C(=O)NC3C(=O)NC4C(=O)NC(C(=O)NC(C(=O)O)c5cc(O)cc(O)c5-c5cc4ccc5O)C(O)c4cc(Cl)c(c(Cl)c4)Oc4cc3cc(c4O)Oc3ccc(cc3Cl)C2O)c2cc(cc(O)c2Cl)Oc2cc1ccc2O (stereo not shown) [AAD 216 aglycone]
- ED50 (Staph. aureus HH 127): 7.6 mg/kg

Compound: CN(C)[C@@H]1C(O)=C(C(N)=O)C(=O)[C@@]2(O)C(O)=C3C(=O)c4c(O)cccc4[C@@](C)(O)[C@H]3C[C@@H]12 [tetracycline]
- zones of inhibition (K. aridum): 11-12 mm

Compound: CCC[C@@H]1C[C@@H](C(=O)N[C@@H]([C@H]2O[C@H](SC)[C@H](O)[C@@H](O)[C@H]2O)[C@@H](C)O)N(C)C1 [lincomycin]
- susceptibility by the diffusion method (in words) (K. aridum): resistant

Compound: CN[C@H](CC(C)C)C(=O)N[C@H]1C(=O)N[C@@H](CC(N)=O)C(=O)N[C@H]2C(=O)N[C@H]3C(=O)N[C@H](C(=O)N[C@H](C(=O)O)c4cc(O)cc(O)c4-c4cc3ccc4O)[C@H](O)c3ccc(c(Cl)c3)Oc3cc2cc(c3O[C@@H]2O[C@H](CO)[C@@H](O)[C@H](O)[C@H]2O[C@H]2C[C@](C)(N)[C@H](O)[C@H](C)O2)Oc2ccc(cc2Cl)[C@H]1O [vancomycin]
- susceptibility by the diffusion method (in words) (K. aridum): resistant

Compound: CC(=O)OCC1=C(C(=O)O)N2C(=O)[C@@H](NC(=O)Cc3cccs3)[C@H]2SC1 [cephalothin]
- susceptibility by the diffusion method (in words) (K. aridum): resistant
